In ChEMBL document CHEMBL5352406 (Eur J Med Chem, 2022):

Columns and labels:
[1] = test system: HCT-116; assay: Antitumor activity against human HCT-116 cells xenografted in BALB/cA-nu mouse tumor model assessed as tumor weight growth inhibition at 10 mg/kg, intragastric administration for 21 days relative to control; format: functional; conditions: HCT-116, 504 h, route ig, time 21 day, read-out: TGI
[2] = test system: A549; assay: Antiproliferative activity against human A549 cells assessed as cell growth inhibition after 72 hrs by MTT assay; format: functional
[3] = AUC (0 to infinity) in Sprague-Dawley rat at 2 mg/kg, iv; format: ADME, organism-based; design: dose 2 mg/kg, route iv; conditions: in vivo
[4] = Acute toxicity in Kunming mouse assessed as survival at 69 mg/kg, po measured for 2 weeks; format: organism-based; conditions: in vivo
[5] = test system: HCT-116; assay: Induction of apoptosis in human HCT-116 cells assessed as necrotic cells at 20 nM measured after 48 hrs by Annexin V-FITC/PI assay (reference value: 2.31%); format: functional
[6] = molecular target: CDK18/Cyclin Y (Homo sapiens) (UniProt Q07002+Q8ND76); assay: Inhibition of CDK18/Cyclin Y (unknown origin) at 500 nM by ADP-Glo kinase assay relative to control; format: protein-complex assay
[7] = Acute toxicity in Kunming mouse assessed as survival at 20 mg/kg, po measured for 2 weeks; format: organism-based; conditions: in vivo
[8] = Cmax in Sprague-Dawley rat at 20 mg/kg, po; format: ADME, organism-based; design: dose 20 mg/kg, route po; conditions: in vivo
[9] = Toxicity in BALB/cA-nu mouse xenografted with human HCT116 cells assessed as liver injury by measuring AST level at 10 mg/kg, intragastric administration for 21 days; format: organism-based, HCT-116; conditions: in vivo, po, 504 h, time 21 day
[10] = AUC (0 to t) in Sprague-Dawley rat at 20 mg/kg, po; format: ADME, organism-based; design: dose 20 mg/kg, route po; conditions: in vivo
[11] = molecular target: CDK7/Cyclin H/MNAT1 (Homo sapiens) (UniProt P51946+P50613+P51948); assay: Inhibition of CDK7/Cyclin H/MAT1 (unknown origin) at 500 nM by ADP-Glo kinase assay relative to control; format: protein-complex assay
[12] = Acute toxicity in Kunming mouse assessed as survival at 30 mg/kg, po measured for 2 weeks; format: organism-based; conditions: in vivo
[13] = test system: HCT-116; assay: Induction of apoptosis in human HCT-116 cells assessed as necrotic cells at 10 nM measured after 48 hrs by Annexin V-FITC/PI assay (reference value: 2.31%); format: functional
[14] = test system: HCT-116; assay: Induction of apoptosis in human HCT-116 cells assessed as late apoptotic cells at 20 nM measured after 48 hrs by Annexin V-FITC/PI assay (reference value: 6.06%); format: functional
[15] = test system: HCT-116; assay: Inhibition of cell migration in human HCT-116 cells after 48 hrs by Wound healing scratch assay; format: functional, cell-based; conditions: dose 2-18 nM
[16] = Toxicity in BALB/cA-nu mouse xenografted with human HCT116 cells assessed as body weight changes at 10 mg/kg, intragastric administration for 21 days; format: organism-based, HCT-116; conditions: in vivo, po, 504 h, time 21 day
[17] = test system: HCT-116; assay: Antitumor activity against human HCT-116 cells xenografted in BALB/cA-nu mouse tumor model assessed as tumor volume growth inhibition at 10 mg/kg, intragastric administration for 21 days relative to control; format: functional; conditions: HCT-116, 504 h, route ig, time 21 day, read-out: GI
[18] = test system: HCT-116; assay: Induction of apoptosis in human HCT-116 cells assessed as viable cells at 20 nM measured after 48 hrs by Annexin V-FITC/PI assay (reference value: 88.5%); format: functional; conditions: read-out: Activity
[19] = molecular target: Cyclin-dependent kinase 13/Cyclin-K (Homo sapiens) (UniProt Q14004+O75909); assay: Inhibition of CDK13/Cyclin K (unknown origin) at 500 nM by ADP-Glo kinase assay relative to control; format: protein-complex assay
[20] = molecular target: CDK6/cyclin D1 (Homo sapiens) (UniProt P24385+Q00534); assay: Inhibition of CDK6/Cyclin D1 (unknown origin) at 500 nM by ADP-Glo kinase assay relative to control; format: protein-complex assay
[21] = Acute toxicity in Kunming mouse assessed as behavior change at 20 to 105 mg/kg, po measured for 2 weeks; format: organism-based; conditions: in vivo, 336 h, dose 20-105 mg/kg
[22] = Cmax in Sprague-Dawley rat at 2 mg/kg, iv; format: ADME, organism-based; design: dose 2 mg/kg, route iv; conditions: in vivo
[23] = Oral bioavailability in Sprague-Dawley rat at 20 mg/kg; format: ADME, organism-based; conditions: in vivo
[24] = molecular target: Cyclin-Y/Cyclin-dependent kinase 16 (Homo sapiens) (UniProt Q00536+Q8ND76); assay: Inhibition of CDK16/Cyclin Y (unknown origin) at 500 nM by ADP-Glo kinase assay relative to control; format: protein-complex assay
[25] = test system: HCT-116; assay: Cell cycle arrest in human HCT-116 cells assessed as accumulation of cells at G0-G1 phase at 10 nM measured after 48 hrs by flow cytometry (reference value: 62.18%); format: functional

Chain of Cyclin-dependent kinase 13/Cyclin-K (Homo sapiens) (O75909 whole entry, looked up): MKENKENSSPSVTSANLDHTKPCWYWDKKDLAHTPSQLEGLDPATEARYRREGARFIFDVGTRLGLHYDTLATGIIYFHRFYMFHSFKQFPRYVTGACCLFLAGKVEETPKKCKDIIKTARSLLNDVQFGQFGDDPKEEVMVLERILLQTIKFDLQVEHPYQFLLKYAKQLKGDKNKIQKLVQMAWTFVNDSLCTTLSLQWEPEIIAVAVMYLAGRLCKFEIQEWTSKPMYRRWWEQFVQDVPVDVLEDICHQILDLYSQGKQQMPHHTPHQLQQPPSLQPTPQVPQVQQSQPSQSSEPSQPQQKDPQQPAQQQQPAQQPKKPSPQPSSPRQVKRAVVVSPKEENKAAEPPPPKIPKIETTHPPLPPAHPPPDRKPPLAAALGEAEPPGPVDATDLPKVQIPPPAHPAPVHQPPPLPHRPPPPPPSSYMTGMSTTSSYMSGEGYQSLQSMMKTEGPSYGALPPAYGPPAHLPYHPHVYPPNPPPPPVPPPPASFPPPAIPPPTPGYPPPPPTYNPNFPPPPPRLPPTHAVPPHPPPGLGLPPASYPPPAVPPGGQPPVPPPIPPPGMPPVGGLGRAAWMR
Chain of Cyclin-dependent kinase 13/Cyclin-K (Homo sapiens) (Q14004 whole entry, looked up): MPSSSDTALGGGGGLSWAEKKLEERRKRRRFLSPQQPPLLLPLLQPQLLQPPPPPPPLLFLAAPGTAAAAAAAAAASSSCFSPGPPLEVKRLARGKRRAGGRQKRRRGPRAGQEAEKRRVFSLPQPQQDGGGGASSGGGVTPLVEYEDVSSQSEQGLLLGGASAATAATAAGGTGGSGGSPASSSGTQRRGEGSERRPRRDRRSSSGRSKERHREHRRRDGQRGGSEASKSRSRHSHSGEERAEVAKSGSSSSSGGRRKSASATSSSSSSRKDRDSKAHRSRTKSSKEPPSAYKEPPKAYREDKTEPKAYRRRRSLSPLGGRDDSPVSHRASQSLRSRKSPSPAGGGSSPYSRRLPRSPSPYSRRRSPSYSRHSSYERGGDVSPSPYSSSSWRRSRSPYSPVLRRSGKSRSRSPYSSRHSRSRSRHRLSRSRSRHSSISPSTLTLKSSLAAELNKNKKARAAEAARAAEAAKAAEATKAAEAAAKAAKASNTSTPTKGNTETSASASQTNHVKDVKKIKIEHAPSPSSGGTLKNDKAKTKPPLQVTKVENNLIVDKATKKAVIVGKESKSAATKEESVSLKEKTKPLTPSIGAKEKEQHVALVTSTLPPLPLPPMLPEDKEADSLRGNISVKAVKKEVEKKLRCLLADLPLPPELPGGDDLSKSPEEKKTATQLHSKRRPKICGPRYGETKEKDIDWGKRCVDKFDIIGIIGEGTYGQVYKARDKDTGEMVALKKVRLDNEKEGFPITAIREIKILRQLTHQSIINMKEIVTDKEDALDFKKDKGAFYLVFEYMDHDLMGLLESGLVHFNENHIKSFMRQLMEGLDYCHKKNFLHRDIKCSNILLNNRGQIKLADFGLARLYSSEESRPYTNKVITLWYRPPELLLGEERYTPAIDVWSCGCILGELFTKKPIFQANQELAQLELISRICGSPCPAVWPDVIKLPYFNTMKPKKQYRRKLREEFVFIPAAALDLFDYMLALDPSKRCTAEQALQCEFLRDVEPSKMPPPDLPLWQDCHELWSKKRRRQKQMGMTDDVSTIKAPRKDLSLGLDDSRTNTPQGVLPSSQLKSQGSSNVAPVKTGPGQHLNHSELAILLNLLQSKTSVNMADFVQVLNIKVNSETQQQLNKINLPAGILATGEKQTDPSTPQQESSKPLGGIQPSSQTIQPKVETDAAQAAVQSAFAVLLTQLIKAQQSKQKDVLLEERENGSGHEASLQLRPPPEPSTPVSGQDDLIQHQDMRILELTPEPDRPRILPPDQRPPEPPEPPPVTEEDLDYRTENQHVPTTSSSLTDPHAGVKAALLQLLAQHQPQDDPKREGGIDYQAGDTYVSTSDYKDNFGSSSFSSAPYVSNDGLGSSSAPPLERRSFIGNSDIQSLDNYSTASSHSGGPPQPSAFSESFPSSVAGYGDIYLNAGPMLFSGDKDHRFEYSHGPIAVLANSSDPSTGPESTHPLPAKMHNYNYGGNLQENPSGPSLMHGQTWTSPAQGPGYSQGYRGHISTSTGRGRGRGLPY

In the case of `Cl.N[C@H]1CCN(c2c3c(nc4ccc(-c5ccnc(NC(=O)C6CC6)n5)cc24)CCCCC3)C1`, the inhibition in vivo at 10 mg/kg [1] is reported as 62.4%, the GI50 [2] is reported as 9 nM and the AUC(0-inf) [3] is reported as 115 ng·h/mL. For the same compound, the survival at 336 h [4] was 100%, the Activity [5] was 1.23% and the inhibition [6] was 68.1%. The survival at 336 h [7] was 100%, the Cmax [8] was 67.8 ng/mL and the Activity [9] was “Non-Toxic”. For the same compound, the AUC(0-t) [10] was 302 ng·h/mL, the inhibition [11] was 60.4% and the survival at 336 h [12] was 100%. The Activity [13] was 1.48%, the Activity [14] was 13.6% and the inhibition [15] was “Dose-Dependent Effect”. For the same compound, the Activity [16] was “Non-Toxic”, the inhibition in vivo at 10 mg/kg [17] was 47.7% and the viability at 0.02 µM [18] was 52.5%. The inhibition [19] was 80.9%, the inhibition [20] was 22.1% and the Activity [21] was “Non-Toxic”. The Cmax [22] was 206 ng/mL, the bioavailability [23] was 27.5% and the inhibition [24] was 76.1%. It also gave an Activity [25] of 46.65%.
